Results on 66 molecules are retold here after the Bradley open melting point set (2014).

Consider `C=C(CC(=O)O)C(=O)O` [itaconic acid], for which the melting point (commonly the temperature, or range, at which the solid turns liquid) turned out to be 167 °C.
Next, `Cc1nc2ccccc2c(=O)n1-c1ccccc1Cl` [mecloqualone]: 126 °C; `FC(F)(F)C(F)(F)C(F)(F)C(F)(F)C(F)(F)C(F)(F)C(F)(F)C(F)(F)Br` [1-bromoperfluorooctane]: 6 °C; `c1ccc2c(c1)ccc1c3ccccc3ccc21` [chrysene]: 255 °C.
Next, `Nc1ccccc1S` [2-aminothiophenol]: 19 °C; `Clc1ccc(-c2ccccc2)cc1` [PCB-3]: 78 °C.
Next, `Cc1cc(/C=C2\SC(=Nc3ccccc3)N=C2O)c(C)n1-c1ccccn1` [OSM-S-51]: 277 °C; `Cc1ccc(C(C)C)c(O)c1` [thymol]: 51 °C; `N[C@@H](CCC(=O)N[C@@H](CS)C(=O)NCC(=O)O)C(=O)O` [Glutathione]: 194 °C.
For the molecule `C=COC(C)=O` [Vinyl acetate], the melting point was -100 °C.
`CC(C)CCCC(C)C1CC[C@@]2(C)[C@@]34CCC5[C@H](C)[C@@H](O)CC[C@]5(C)[C@]3(CC[C@]12C)O4` (stereo partly specified) registered a melting point of 162 °C.
Next, `ClCCBr` [1-bromo-2-chloroethane]: -17 °C; `O=C[C@@H](O)[C@H](O)[C@@H](O)[C@@H](O)CO` [L-Glucose]: 150 °C.
Next, `OB(O)c1cccc2c1Sc1ccccc1S2` [thianthrene-1-boronic acid]: 147 °C.
On to `CC(C)[C@@H](NC(=O)OCc1ccccc1)C(=O)O` [N-benzyloxycarbonyl-D-valine], for which the melting point was found to be 59 °C.
Next, `CC(C)(C)OC(=O)N[C@@H](CO)Cc1ccccc1` [N-boc-D-phenylalaninol]: 95 °C.
In the case of `O=C(O)CC(F)(F)F` [3,3,3-trifluoropropionic acid], the melting point is 9 °C.
On to `CC(C)CCBr` [1-bromo-3-methylbutane], for which the melting point was -112 °C.
Consider `Cc1ccccc1Cl` [o-chlorotoluene], for which the melting point is -35 °C.
Next, `CCBr` [bromoethane]: -119 °C; `CC(C)(C)c1ccccc1` [tert-butylbenzene]: -58 °C; `CCCCCCCCCCCCCCCCCCCCCC(=O)O` [behenic acid]: 76 °C.
Next, `Cc1ccc([N+](=O)[O-])cc1Cl` [2-chloro-4-nitrotoluene]: 60 °C; `C[C@]12CC[C@H](O)CC1=CC[C@@H]1[C@@H]2CC[C@]2(C)C(=O)CC[C@@H]12` [prasterone]: 140 °C; `COC(=O)CC(=O)OC` [Dimethyl malonate]: -62 °C.
Next, `C/C(=C\c1ccccc1)c1ccccc1` [(e)-alpha-methylstilbene]: 81 °C; `CC(=O)Oc1ccccc1C(=O)O` [Acetylsalicylic acid]: 135 °C.
`CC(C)(C)Cl` [tert-butyl chloride]: the melting point was -26 °C.
Take `NC(=O)c1cccc([N+](=O)[O-])c1` [m-nitrobenzamide]: the melting point worked out at 143 °C.
Next, `CCOC(=O)c1ccc([N+](=O)[O-])cc1` [ethyl_4-nitrobenzoate]: 58 °C; `CCCCCCCCCCCCc1ccccc1` [N-dodecylbenzene]: -7 °C.
Next, `CC(=O)Nc1cccc(F)c1` [3'-fluoroacetanilide]: 88 °C.
Next, `CC[Si](CC)(CC)CC` [tetraethylsilane]: -82 °C; `ClCc1ccccc1` [benzyl_chloride]: -43 °C; `CCOCCOCCOCC` [diethylene glycol diethyl ether]: -44 °C.
`Cc1cc[n+]([O-])cc1C(N)=O` [4-methylpyridine-3-carboxamide 1-oxide] had a melting point of 280 °C.
Next, `Cc1ccc([N+](=O)[O-])cc1` [4-nitrotoluene]: 53 °C; `C[C@@H](O)CO` [1,2-Propanediol]: -60 °C; `COc1ccc(C(=O)O)cc1Br` [3-bromo-4-methoxybenzoic acid]: 220 °C.
As to `C=CCC1(CC(C)C)C(=O)NC(=O)NC1=O` [BUTALBITAL], the melting point was 138 °C.
Next, `O=C1CCCc2cc3c(c(CSc4ccccc4)c21)-c1ccccc1OC3`: 91 °C.
In turn, `CCCCCCCCCCCC=O` [dodecanal] showed a melting point of 12 °C.
`Cc1cccc(C)c1[N+](=O)[O-]` [2-nitro-m-xylene]: the melting point amounted to 15 °C.
Next, `CC(=O)/C(=N/Nc1cc(Cl)ccc1Cl)C(=O)C(F)(F)F`: 84 °C.
Next, `Oc1ccc(C(c2ccccc2)(c2ccccc2)c2ccccc2)cc1` [4-tritylphenol]: 281 °C; `Cc1cc(C)c(Br)c(C)c1` [2-bromomesitylene]: 2 °C.
`CC(C)(C)/[N+]([O-])=C/c1ccccc1` [N-tert-butyl-alpha-phenylnitrone] gave a melting point of 73 °C.
Next, `COC(=O)c1cc(Cl)ccc1N` [methyl 2-amino-5-chlorobenzoate]: 69 °C.
Next, `CCCCCCCCCCCCCCCCCCCCCCCCCC` [N-hexacosane]: 57 °C.
Next, `CCOC(=O)Nc1ccc(C)cc1[N+](=O)[O-]` [Ethyl (4-methyl-2-nitrophenyl)carbamate]: 65 °C.
Consider `CCOC(=O)CCCCC(=O)OCC` [diethyl_adipate], for which the melting point is -18 °C.
Next, `N#CCc1c[nH]cn1` [(4-imidazolyl)acetonitrile]: 137 °C; `O=C(N[C@H](CO)C(=O)O)OCc1ccccc1` [N-benzyloxycarbonyl-D-serine]: 118 °C.
Next, `CC12CCC(=O)C=C1CCC1C2C(O)CC2(C)C1CCC2(O)C(=O)CO` (stereo unspecified) [hydrocortisone]: 223 °C.
Molecule `O=C(O)c1c(Cl)cc(Cl)cc1Cl` [2,4,6-trichlorobenzoic acid] had a melting point of 163 °C.
Next, `Cc1cc(O)cc(C)c1Cl` [4-Chloro-3,5-dimethylphenol]: 115 °C; `CC=C(C)CC` [3-methyl-cis-2-pentene]: -135 °C.
`Cc1cc(O)n2ncnc2n1` [7-hydroxy-5-methyl[1,2,4]triazolo[1,5-a]pyrimidine]: the melting point turned out to be 283 °C.
Next, `OC(c1ccccc1)(c1ccccc1)c1ccccc1` [triphenylmethanol]: 163 °C.
Next, `c1cc2c3c(cccc3c1)CC2` [1,2-Dihydroacenaphthylene]: 95 °C.
Next, `Cc1nc(C)c(C)nc1C` [Tetramethylpyrazine]: 85 °C.
On to `Cc1cc(O)cc(C)c1Cl` [4-chloro-3,5-dimethylphenol], for which the melting point was determined as 115 °C.
Next, `ICI` [diiodomethane]: 6 °C.
Next, `N#Cc1ccc(C(c2ccc(C#N)cc2)n2cncn2)cc1` [Letrozole]: 184 °C.
Molecule `CC(=O)c1ccc(N2CCNCC2)cc1` [4'-(1-piperazinyl)acetophenone] returned a melting point of 96 °C.
With `CC(C)OC(C)C` [diisopropyl_ether], the melting point was -86 °C.
